Test results from patent US20240300945A1, “CLY SERIES COMPOUND, PREPARATION METHOD THEREFOR AND USE THEREOF IN PREPARATION OF DRUGS” (NANJING WELLBEST PHARMACEUTICAL CO., LTD, priority 2021, published 2024).

How the values were obtained:
[1] = Pharmacokinetic properties of rats (bioavailability); assay type: in vivo; conditions: rat, po; male SD rats; intravenous 1 mg/kg, intragastric 5 mg/kg; plasma LC/MS/MS
Description: Male SD rats were randomly assigned to each group, 12 rats in each compound group, and then randomly divided into two groups. Six rats were administered intravenously (1 mg/kg), and blood was collected and plasma was separated respectively at 0.0833, 0.25, 0.5, 1, 2, 4, 6, 8, and 24 hours after administration. The other six rats were administered intragastrically (5 mg/kg), and blood was collected and plasma was separated respectively at 0.25, 0.5, 1, 2, 4, 6, 8, and 24 hours after administration. The concentration of each compound in plasma was determined by LC/MS/MS method, and the relevant pharmacokinetic parameters were calculated by using the software Phoenix WinNonlin 6.2.1, the bioavailability in rats was calculated, and the pharmacokinetic properties of each compound were evaluated.

rat scar model = test: Rat scar model (skin wound healing); assay type: in vivo; conditions: rat back wound 2.4 cm; 0.5% cream on the skin
Source text: 1.1 Preparation method of treatment cream: The excipient matrix components included methyl silicone oil (15%), stearic acid (6%), white vaseline (5%), liquid paraffin (5%), octadecanol (5%), glycerin (20%), alkylaryl polyglycol ether (1%), fatty alcohol polyoxyethylene ether (1%), […] (1%), ethyl paraben (0.1%), distilled water (about 31-55%), and mixed with appropriate amount of CLY series compounds to form a mixed emulsion. The emulsion matrix used in this embodiment refers to the matrix component after the active ingredient was removed from the emulsion.
1.2 Grouping and modeling of experimental animals: SPF grade male rats, weighing (210±28) g, from the Animal Center of Nanyi University. The rats were numbered according to their body weight and using the random array method, samples were divided into the model control group (applied cream matrix), CLY-1 treatment group (applied 0.5% CLY-1 cream on the skin), CLY-2 treatment group (applied 0.5% CLY-2 cream on the skin), CLY-3 treatment group (0.5% CLY-3 cream on the skin), CLY-4 treatment group (0.5% CLY-4 cream on the skin), CLY-8 treatment group (0.5% CLY-8 cream on the skin), CLY-11 treatment group (0.5% CLY-11 cream on the skin) CLY-19 treatment group (0.5% CLY-19 cream on the skin), CLY-36 treatment group (0.5% CLY-36 cream on the skin), and CLY-39 treatment group (0.5% CLY-39 cream on the skin), 6 in each group. Rats in each group were anesthetized by intraperitoneal injection of 2% pentobarbital sodium (120 mg/kg) and fixed on the operating table, and then chose a piece of 4×5 cm of intact skin on the back, 8% sodium sulfide hair removal, used tissue scissors to cut a wound with a diameter of 2.4 cm and a depth of muscle fascia at the hair removal site, and damage part of the muscle surface fascia. Animals were kept in separate cages to prevent rats from biting and licking. Applied 2% iodine tincture daily to the wound for routine disinfection, and observed the wound healing of rats.
The wounds were routinely disinfected every day, and the wounds of rats were observed on the 1st, 3rd, 5th, 7th, 12th, and 20th days. […] On the 12th day, the wounds in each treatment group had basically recovered, while the model group still had about 0.5 cm2 of wounds. By the 20th day, the wounds in each group had recovered, and the model control group left obvious scars, while each treatment group only left different amounts of pigmentation.

[2] = tested on: skin hair follicles and sebaceous glands of mice; test: Mouse hair loss model: histopathological grading of skin hair follicles and sebaceous glands; assay type: in vivo, C57BL/6 mice; conditions: external 2% tincture, 60 days, 6 mice per group; for number of mice with hair follicle and sebaceous gland grade +++: grade +++ (most severe); for number of mice with hair follicle and sebaceous gland grade ±: grade ± (lesions limited); for number of mice with hair follicle and sebaceous gland grade −: grade − (normal structure)
Source text: The experimental mice were divided into the negative control group (external use of 60% ethanol), model group (external use of 60% ethanol), positive control group (external use of 2% minoxidil tincture), CLY-1 external treatment group (external use of 2% CLY-1 tincture), CLY-2 external treatment group (external use of 2% CLY-2 tincture), CLY-3 external treatment group (external use of 2% CLY-3 tincture), CLY-4 external treatment group (external use of 2% CLY-4 tincture), CLY-8 external treatment group (external use of 2% CLY-8 tincture) CLY-11 external treatment group (2% CLY-11 tincture), CLY-19 external treatment group (2% CLY-19 tincture), CLY-36 external treatment group (2% CLY-36 tincture), and CLY-39 external treatment group (2% CLY-39 tincture). There were 6 animals in each group, half male and half female. An area of 4 cm×5 cm from the back of experimental mice with hair removed was selected, and the hair removal area was painted yellow with 3% picric acid solution to determine the observation area of the hair removal experiment. In addition to the negative control group, mice in other groups were injected subcutaneously with testosterone propionate injection [8 ml/(kg·d)] at the back of the neck, once a day, for 60 consecutive days, to establish the model of androgenic alopecia (AGA). At the same time of modeling, the rats in the corresponding drug group were smeared with drugs on the observation area of the back at the rate of 1 ml/(piece·time), twice a day, with an interval of 2 hours. The normal control group and the model control group were smeared with the excipient (60% ethanol solution), 1 ml/(one time), twice a day, for 60 consecutive days.
10 hairs were extracted from the observation area on the back of each mouse every 15 days after administration, and the hair length was measured with a vernier caliper. After 60 days of administration, the skin of the experimental observation area was taken for routine tissue dehydration, paraffin embedding, HE staining, and light microscopy to observe the histopathological changes of mouse skin hair follicles and sebaceous glands. Semi-quantitative analysis was performed for each group. The grading criteria are as follows: the normal structure of dermal tissue cells, subcutaneous hair follicles, and sebaceous glands is marked as […]: no hyperplasia of dermal tissue is found, the lesions of hair follicles and sebaceous glands are limited, and no inflammation is found under the skin is marked as “+”: no obvious hyperplasia of dermal tissue is found, and the follicles are obviously cystic. No obvious hyperplasia of sebaceous glands is found, and no inflammation is found under the skin is marked as “+”: the dermal tissue has segmental hyperplasia, which is not obvious, A small number of hair follicles have cystic changes, and the sebaceous glands have mild hyperplasia and hypertrophy. There is no obvious inflammation under the skin, which is marked as “++”: the dermal tissue cells of the skin have different degrees of segmental hyperplasia, and some hair follicles have cystic changes, showing uneven size of hair follicles, and no cells around. The sebaceous glands have hyperplasia, and the nuclei in the proliferative glands are few. A few subcutaneous mild inflammatory hyperplasia is marked as “+++”.

Structure (SMILES) | bioavailability [1] [%] | skin wound healing and scar formation (rat scar model) | number of mice with hair follicle and sebaceous gland grade +++ [2] | number of mice with hair follicle and sebaceous gland grade ++ [2] | number of mice with hair follicle and sebaceous gland grade + [2] | number of mice with hair follicle and sebaceous gland grade ± [2] | number of mice with hair follicle and sebaceous gland grade − [2]
CN1CCC[C@@H](N(C(=O)c2ccc(-n3nnc4cccnc43)cc2)c2ncccc2Cl)C1 [CLY-1, (R)-4-(3H-[1,2,3]triazolo[4,5-b]pyridin-3-yl)-N-(3-chloropyridin-2-yl)-N-(1-methylpiperidin-3-yl)benzamide] | 69.8 | significantly promote skin wound healing and reduce scar formation | 0 | 1 | 2 | 3 | 0
CCN1CCC[C@@H](N(C(=O)c2ccc(-n3nnc4cccnc43)cc2)c2ncccc2Cl)C1 [CLY-2, (R)-4-(3H-[1,2,3]triazolo[4,5-b]pyridin-3-yl)-N-(3-chloropyridin-2-yl)-N-(1-ethylpiperidin-3-yl)benzamide] | 72.6 | significantly promote skin wound healing and reduce scar formation | 0 | 0 | 2 | 4 | 0
CNC1CCCC(N(C(=O)c2ccc(-n3nnc4cccnc43)cc2)c2ncccc2Cl)C1 (stereo not drawn) [CLY-3] | 69.5 | significantly promote skin wound healing and reduce scar formation | 0 | 2 | 1 | 3 | 0
O=C(c1ccc(-n2nnc3cccnc32)cc1)N(c1ncccc1Cl)C1CCCC(O)C1 (stereo not drawn) [CLY-4] | 59.5 | significantly promote skin wound healing and reduce scar formation | 0 | 2 | 2 | 2 | 0
COC1CCCC(N(C(=O)c2ccc(-n3nnc4cccnc43)cc2)c2ncccc2Cl)C1 (stereo not drawn) [CLY-5] | 53.8 | – | – | – | – | – | –
O=C(c1ccc(-n2nnc3cccnc32)cc1)N(c1ncccc1Cl)[C@@H]1CCNC1 [CLY-8, (R)-4-(3H-[1,2,3]triazolo[4,5-b]pyridin-3-yl)-N-(3-chloropyridin-2-yl)-N-(pyrrolidin-3-yl)benzamide] | 78.2 | significantly promote skin wound healing and reduce scar formation | 0 | 0 | 2 | 4 | 0
NC1CCCC(N(C(=O)c2ccc(-n3nnc4cccnc43)cc2)c2ncccc2Cl)C1 (stereo not drawn) [CLY-11] | 63.5 | significantly promote skin wound healing and reduce scar formation | 0 | 2 | 1 | 3 | 0
O=C(c1ccc(-c2ccccc2-c2nnn[nH]2)cc1)N(c1ncccc1Cl)[C@@H]1CCCNC1 [CLY-19] | 66.3 | significantly promote skin wound healing and reduce scar formation | 0 | 1 | 2 | 3 | 0
O=C(c1ccc(-c2ccccc2Cl)cc1)N(c1ncccc1Cl)[C@@H]1CCCNC1 [CLY-36] | 68.6 | significantly promote skin wound healing and reduce scar formation | 0 | 2 | 1 | 3 | 0
Nc1ccccc1-c1ccc(C(=O)N(c2ncccc2Cl)[C@@H]2CCCNC2)cc1 [CLY-39] | 65.6 | significantly promote skin wound healing and reduce scar formation | 0 | 1 | 2 | 3 | 0
Nc1cc(N2CCCCC2)nc(N)[n+]1[O-] [Positive control group, minoxidil, reference compound] | – | – | 0 | 3 | 1 | 2 | 0
